The results in this text go back to ChEMBL document CHEMBL3879914, “Inhibitors of central nervous system vasoactive inhibitory peptide receptor 2” (2014).

Experiment [1] concerns the target T1, Vasoactive intestinal polypeptide receptor 2 (Homo sapiens) (UniProt P41587).
T1 sequence (whole entry): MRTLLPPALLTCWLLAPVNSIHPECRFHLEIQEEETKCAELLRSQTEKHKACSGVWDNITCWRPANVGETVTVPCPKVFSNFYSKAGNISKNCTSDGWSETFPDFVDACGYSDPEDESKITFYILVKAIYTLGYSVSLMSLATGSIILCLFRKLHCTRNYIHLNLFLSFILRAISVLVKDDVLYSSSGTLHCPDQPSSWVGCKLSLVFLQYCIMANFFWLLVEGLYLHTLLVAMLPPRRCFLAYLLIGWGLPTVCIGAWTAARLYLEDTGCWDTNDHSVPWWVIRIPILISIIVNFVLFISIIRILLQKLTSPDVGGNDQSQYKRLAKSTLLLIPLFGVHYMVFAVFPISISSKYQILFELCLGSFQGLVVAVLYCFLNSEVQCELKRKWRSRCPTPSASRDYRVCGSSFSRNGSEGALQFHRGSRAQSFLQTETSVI
The experiment in a line: Antagonist activity at recombinant human N-terminal signal peptide/FLAG epitope-tagged VIPR2 expressed in HEK293 cells co-expressing CAMYEL assessed as inhibition of VIP-induced cAMP accumulation at 1 uM preincubated for 5 mins with luciferin, coelenterazine H followed by VIP addition measured after 5 mins by BRET assay relative to control. The experiment is classed as functional, cell-based.

For experiment [2], the target named is T1, Vasoactive intestinal polypeptide receptor 2 (Homo sapiens). The experiment in a line: Antagonist activity at recombinant human N-terminal signal peptide/FLAG epitope-tagged Rluc8-fused VIPR2 expressed in HEK293 cells assessed as inhibition of VIP-induced human mVenus-beta-arrestin2 binding at 5 uM preincubated for 5 mins with luciferin, coelenterazine H followed by VIP addition measured after 5 mins by BRET assay relative to control. The experiment is classed as cell-based.

For experiment [3] the target is unchanged. Description: Antagonist activity at recombinant human N-terminal signal peptide/FLAG epitope-tagged Rluc8-fused VIPR2 expressed in HEK293 cells assessed as inhibition of VIP-induced human mVenus-beta-arrestin2 binding at 1 uM preincubated for 5 mins with luciferin, coelenterazine H followed by VIP addition measured after 5 mins by BRET assay relative to control. The experiment is classed as cell-based. In general terms: BRET reads energy transfer from a luciferase to a nearby fluorophore.

The target is the same in experiment [4]. Description: Antagonist activity at recombinant human N-terminal signal peptide/FLAG epitope-tagged VIPR2 expressed in HEK293 cells co-expressing CAMYEL assessed as inhibition of VIP-induced cAMP accumulation at 5 uM preincubated for 5 mins with luciferin, coelenterazine H followed by VIP addition measured after 5 mins by BRET assay relative to control. The format is functional, cell-based. (Cyclic AMP is a second messenger, typically raised through Gs and lowered through Gi signalling.)

The target is the same in experiment [5]. The experiment in a line: Antagonist activity at recombinant human N-terminal signal peptide/FLAG epitope-tagged VIPR2 expressed in HEK293 cells co-expressing CAMYEL assessed as inhibition of VIP-induced cAMP accumulation at 0.5 uM preincubated for 5 mins with luciferin, coelenterazine H followed by VIP addition measured after 5 mins by BRET assay relative to control. The experiment is classed as functional, cell-based.

Experiment [6] has the same target. The experiment in a line: Antagonist activity at recombinant human N-terminal signal peptide/FLAG epitope-tagged Rluc8-fused VIPR2 expressed in HEK293 cells assessed as inhibition of VIP-induced human mVenus-beta-arrestin2 binding at 0.5 uM preincubated for 5 mins with luciferin, coelenterazine H followed by VIP addition measured after 5 mins by BRET assay relative to control. The format is cell-based.

The term inhibition denotes the relative decrease from the control value, in per cent. As for `CC(C)c1cc(C(C)C)c(S(=O)(=O)NC[C@@H](O)C[C@@H](Cc2ccccc2)C(=O)N[C@H]2c3ccccc3C[C@H]2O)c(C(C)C)c1`, the inhibition in experiment [1] was 18.6%; in experiment [2], 8.3%; in experiment [3] it was 30.9%; in experiment [4] it was 90%; in experiment [5], 19.5%; in experiment [6] it was 29.7 to 49.1%.
In the case of `CC(C)(C)c1ccc(S(=O)(=O)NC[C@@H](O)C[C@@H](Cc2ccccc2)C(=O)N[C@H]2c3ccccc3C[C@H]2O)cc1`, the inhibition in experiment [1] was 13%; in experiment [2], 56.7%; in experiment [3] it was 18.1%; in experiment [4], 72.1%; in experiment [5] it was 9.7%; in experiment [6], 0%.
In the case of `CNC(=O)c1ccc(S(=O)(=O)NC[C@@H](O)C[C@@H](Cc2ccccc2)C(=O)N[C@H]2c3ccccc3C[C@H]2O)cc1`, the inhibition in experiment [1] is 22.1%; in experiment [2], -1%; in experiment [3], -1.6%; in experiment [4], 69.5%; in experiment [5] it was 13.8%; in experiment [6], 6.3 to 34.2%.
`O=C(CCN1C(=O)C=CC1=O)NC[C@@H](O)C[C@@H](Cc1ccccc1)C(=O)N[C@H]1c2ccccc2C[C@H]1O`: the inhibition in experiment [1] was 19%; in experiment [2] it was -3.1%; in experiment [3], 15.2%; in experiment [4], 18.6%; in experiment [5], 15.5%; in experiment [6] it was 7.75 to 9.9%.
On to `O=C(CCl)NC[C@@H](O)C[C@@H](Cc1ccccc1)C(=O)N[C@H]1c2ccccc2C[C@H]1O`, for which the inhibition in experiment [1] was 19.2%; in experiment [2], 17.5%; in experiment [3] it was 23.7%; in experiment [4], 15.6%; in experiment [5], 18.4%; in experiment [6] it was 9.9 to 16.6%.
As to `CC1CCC(NC(=O)[C@@H](Cc2ccccc2)C[C@H](O)CNS(=O)(=O)c2ccc([N+](=O)[O-])cc2)CC1` (stereo partly drawn), the inhibition was 9.5% in experiment [1]; -0.8% in experiment [2]; -0.4% in experiment [3]; 5.1% in experiment [4]; -0.7% in experiment [5]; 2.15 to 5.7% in experiment [6].
Take `CC1CCC(NC(=O)[C@H](Cc2ccccc2)C[C@H](O)CNS(=O)(=O)c2ccc([N+](=O)[O-])cc2)CC1` (stereo partly drawn): the inhibition in experiment [1] was -2.5%; in experiment [2], 0.4%; in experiment [3], -1.3%; in experiment [4] it was -2.8%; in experiment [5], -5%; in experiment [6], -1.2 to 13.4%.
Take `O=C(N[C@H]1c2ccccc2C[C@H]1O)[C@H](Cc1ccccc1)C[C@H](O)CNS(=O)(=O)c1ccccc1C(F)(F)F`: the inhibition was 18.8% in experiment [1]; 21% in experiment [2]; 24.8% in experiment [3]; 24.7% in experiment [4]; 23% in experiment [5]; 10.7 to 22.9% in experiment [6].
Consider `O=C(NC1CCCC1)[C@@H](Cc1ccccc1)C[C@H](O)CNS(=O)(=O)c1ccc([N+](=O)[O-])cc1`, for which the inhibition in experiment [1] is -2.5%; in experiment [2] it was 1.3%; in experiment [3], -6.1%; in experiment [4], -0.3%; in experiment [5], -7.5%; in experiment [6], -5.7 to 0.5%.
Consider `C[C@H](CC(C)(C)C)NC(=O)[C@@H](Cc1ccccc1)C[C@H](O)CNS(=O)(=O)c1ccc([N+](=O)[O-])cc1`, for which the inhibition in experiment [1] was 19.6%; in experiment [2], 20.2%; in experiment [3], 27.9%; in experiment [4], 7.4%; in experiment [5], 6.5%; in experiment [6], 13.8 to 36.8%.
On to `O=C(NC[C@@H](O)C[C@@H](Cc1ccccc1)C(=O)N[C@H]1c2ccccc2C[C@H]1O)C1CC1`, for which the inhibition was 21.1% in experiment [1]; 29.1% in experiment [2]; 37% in experiment [3]; 24% in experiment [4]; 21% in experiment [5]; -3.8 to 26.6% in experiment [6].
In the case of `C#CCCCC(=O)NC[C@@H](O)C[C@@H](Cc1ccccc1)C(=O)N[C@H]1c2ccccc2C[C@H]1O`, the inhibition in experiment [1] is 20.2%; in experiment [2], 25.8%; in experiment [3] it was 16.1%; in experiment [4], 26.6%; in experiment [5], 20.8%; in experiment [6], 26.2 to 45.8%.
Regarding `Nc1ccc(S(=O)(=O)NC[C@@H](O)C[C@@H](Cc2ccccc2)C(=O)N[C@H]2c3ccccc3C[C@H]2O)cc1`, the inhibition was 18.6% in experiment [1]; 6.7% in experiment [2]; -5.5% in experiment [3]; 33.3% in experiment [4]; 8.4% in experiment [5]; -5.6 to 20% in experiment [6].
For the molecule `O=C(NC[C@@H](O)C[C@@H](Cc1ccccc1)C(=O)N[C@H]1c2ccccc2C[C@H]1O)c1ccccn1`, the inhibition in experiment [1] is 17.7%; in experiment [2], 5.5%; in experiment [3], 32.7%; in experiment [4], 20.3%; in experiment [5], 14.9%; in experiment [6], 6.1 to 12.9%.
In the case of `CC(=O)Nc1ccc(S(=O)(=O)NC[C@@H](O)C[C@@H](Cc2ccccc2)C(=O)N[C@H]2c3ccccc3C[C@H]2O)cc1`, the inhibition was 19.1% in experiment [1]; 4.2% in experiment [2]; 4.9% in experiment [3]; 19.1% in experiment [4]; 15.2% in experiment [5]; -1.2 to 11.7% in experiment [6].
`CC(C)(C)c1ccc(C(=O)NC[C@@H](O)C[C@@H](Cc2ccccc2)C(=O)N[C@H]2c3ccccc3C[C@H]2O)cc1`: the inhibition is 16% in experiment [1]; 7.8% in experiment [2]; 11.3% in experiment [3]; 23.2% in experiment [4]; 10.7% in experiment [5]; 15.5 to 16.2% in experiment [6].
For the molecule `O=C(NC[C@@H](O)C[C@@H](Cc1ccccc1)C(=O)N[C@H]1c2ccccc2C[C@H]1O)c1ccco1`, the inhibition in experiment [1] was 22.5%; in experiment [2] it was 33.3%; in experiment [3], 27.7%; in experiment [4], 19.1%; in experiment [5], 20.8%; in experiment [6], 26.2 to 30.3%.
For the molecule `C=Cc1ccc(C(=O)NC[C@@H](O)C[C@@H](Cc2ccccc2)C(=O)N[C@H]2c3ccccc3C[C@H]2O)cc1`, the inhibition is 16.5% in experiment [1]; 1.8% in experiment [2]; 47.5% in experiment [3]; 23.8% in experiment [4]; 16.1% in experiment [5]; 2.3 to 12.8% in experiment [6].
Consider `O=C(NCc1ccc(F)cc1F)[C@@H](Cc1ccccc1)C[C@H](O)CNS(=O)(=O)c1ccc([N+](=O)[O-])cc1`, for which the inhibition in experiment [1] was 4.7 to 13.8%; in experiment [2], 24%; in experiment [3], 20%; in experiment [4], 13.8 to 18.2%; in experiment [5], -5.4%; in experiment [6], 21.1 to 23.9%.
Consider `O=C(NCCc1cccc(Cl)c1)[C@H](Cc1ccccc1)C[C@H](O)CNS(=O)(=O)c1ccc([N+](=O)[O-])cc1`, for which the inhibition in experiment [1] is -3.4%; in experiment [2], -8.6%; in experiment [3] it was -7.8%; in experiment [4], 7.8%; in experiment [5], -5.5%; in experiment [6] it was -6.7 to -0.4%.
For `O=C(NN1CCCCC1)[C@@H](Cc1ccccc1)C[C@H](O)CNS(=O)(=O)c1ccc([N+](=O)[O-])cc1`, the inhibition in experiment [1] was 12.3%; in experiment [2], 4.7%; in experiment [3] it was 3.3%; in experiment [4], 6%; in experiment [5], 9.2%; in experiment [6], -0.9 to 5.35%.
Take `C#CCNC(=O)[C@@H](Cc1ccccc1)C[C@H](O)CNS(=O)(=O)c1ccc([N+](=O)[O-])cc1`: the inhibition in experiment [1] is 7.3%; in experiment [2] it was 7%; in experiment [3], 3.4%; in experiment [4] it was 13.5%; in experiment [5], 3.1%; in experiment [6] it was 3.3 to 10.2%.
In the case of `CCN(CC)C(=O)c1ccc(S(=O)(=O)NC[C@@H](O)C[C@@H](Cc2ccccc2)C(=O)N[C@H]2c3ccccc3C[C@H]2O)cc1`, the inhibition in experiment [1] is 5.9%; in experiment [2] it was -1.2%; in experiment [3], 3.1%; in experiment [4] it was 31.8%; in experiment [5] it was 2.5%; in experiment [6], 0.3 to 15.3%.
